Paper PMC11999338, “Factor XI localization in human deep venous thrombus and function of activated factor XI on venous thrombus formation and hemostasis” (Research and Practice in Thrombosis and Haemostasis, 2025)
“Also recorded” adds a separate entry of the source.

Key:
[1] = system: jugular vein thrombus; test: Rabbit model of jugular vein thrombosis by endothelial denudation and luminal stenosis; format: in vivo; conditions: rabbits; for venous thrombus weight compared with control: 90 minutes before thrombus formation, thrombus weighed after 3 hours
Protocol: The protocols of the venous thrombosis and skin bleeding models in rabbits were as follows (Supplementary Figure 2). First, fasting rabbits were orally administered a solvent as a control (n = 10), a FXIa inhibitor (ONO-1600586, 5 mg/kg, n = 10; 15 mg/kg, n = 10; and 50 mg/kg, n = 11), or a FXa inhibitor ([…], n = 10 each) using a Nelaton catheter of 5 mm diameter (IZUMO Health Co, Ltd) 90 minutes before thrombus formation. […] Additional anesthesia with one-third amount of the above-mentioned mixture of drugs was administered 80 minutes after the first injection, and all surgical operations proceeded under aseptic conditions. Briefly, 90 minutes postadministration of the solvent, ONO-1600586, or rivaroxaban, venous thrombi were induced in rabbit jugular veins through endothelial denudation using a 3F balloon catheter (Edwards Lifesciences), according to a previous study, and the method was modified to induce luminal stenosis. A 2 mm polyethylene tube was placed outside the vessel. Both the jugular vein and polyethylene tube were ligated, and the tube was removed (Supplementary Figure 3). Next, 3 hours after thrombus formation and stenosis, the rabbits were infused with heparin (500 U/kg, i.v.) and then euthanized with an overdose of pentobarbital (60 mg/kg, i.v.). Subsequently, the animals were perfused with 50 mL phosphate-buffered saline (0.01 mol/L), and the jugular veins were sampled. The venous thrombi were immediately removed from the venous wall and weighed. […] Paraffin-embedded sections (4 μm thick) of the rabbit jugular vein thrombus were stained with HE and morphologically assessed. Consecutive sections of thrombi were immunohistochemically stained with antibodies against fibrin (Millipore) and GPIIb/IIIa (Affinity Biologicals Inc). Images were digitized using a photosensitive color CCD camera (BX51, OLYMPUS). Finally, the area of the red-stained erythrocytes in HE staining and the immunopositive areas for fibrin and GPIIb/IIIa were semiquantified using a color imaging morphometry system (WinROOF, Mitani).

[2] = system: PT and aPTT; test: Coagulation parameters (PT, aPTT) after oral administration in rabbits, denudation/stenosis model; format: in vivo, rabbit
Protocol: The protocols of the venous thrombosis and skin bleeding models in rabbits were as follows (Supplementary Figure 2). First, fasting rabbits were orally administered a solvent as a control (n = 10), a FXIa inhibitor (ONO-1600586, 5 mg/kg, n = 10; 15 mg/kg, n = 10; and 50 mg/kg, n = 11), or a FXa inhibitor (rivaroxaban, 1.5 mg/kg, 5 mg/kg, and 15 mg/kg, n = 10 each) using a Nelaton catheter of 5 mm diameter (IZUMO Health Co, Ltd) 90 minutes before thrombus formation. The thrombus formation and bleeding were performed under general anesthesia through the subcutaneous injection of a mixture of medetomidine hydrochloride (0.08 mg/kg body weight), butorphanol tartrate (0.2 mg/kg), and midazolam (0.4 mg/kg). Additional anesthesia with one-third amount of the above-mentioned mixture of drugs was administered 80 minutes after the first injection, and all surgical operations proceeded under aseptic conditions.
Blood samples were collected from the central ear arteries of rabbits before and 75 minutes and 4.5 hours after the administration of the solvent, ONO-1600586, and rivaroxaban in 3.8% sodium citrate (9:1 v/v) using 21-gauge needles. Plasma samples were centrifuged at 1500 × g for 15 minutes at room temperature. Prothrombin time (PT) and activated partial thromboplastin time (aPTT) were measured using a coagulation timer (KC-1 Delta, Tcoag Ireland Ltd) and reagents (aPTT: ACTIN, Siemens; PT: THROMBOCHECK PT+, Sysmex).

[3] = system: human thrombus formation in vitro; test: In vitro human blood perfusion in flow chamber on collagen and tissue factor (70/s); format: cell-based; conditions: rivaroxaban 1 μmol/L, low-shear 70/s
Protocol: The Ethics Committee of the University of Miyazaki approved this study (approval number O-1160). The Collagen Reagent HORM (Takeda Pharmaceutical, 20 μg/mL) and recombinant tissue factor (Dade Innovin, ×1000, Siemens) were immobilized on glass coverslips (24 × 50 mm) in parallel-plate flow chambers, as described above. Blood from healthy human volunteers who were not on medication was collected using 21-gauge needles into plastic syringes containing a corn trypsin inhibitor (Molecular Innovations, final concentration 10 μg/mL). Anticoagulated whole blood was used for the perfusion. The solvent (n = 10), FXIa inhibitor (ONO-1600586, 3 μmol/L, n = 10) or FXa inhibitor (rivaroxaban, 1 μmol/L, n = 10), and mepacrine (Sigma-Aldrich, final concentration 5 μM) were added to the blood before perfusion. Blood samples were perfused through the chamber using a syringe pump (KDS100, KD Scientific Inc) at a constant flow rate (15 mL/h) to achieve wall shear rates of 70/s. Finally, the surface covering area, fibrin-immunopositive area, and the number of neutrophils were analyzed as described above.
The pre-and postperfused blood samples were collected into a tube containing 3.8% sodium citrate anticoagulant (9:1 v/v). Plasma samples were centrifuged at 1500 × g for 15 minutes at room temperature. FXIa and FXa activities were measured using an automatic blood coagulation analyzer (ACL-TOP, Werfen), as well as FXI-deficient plasma (HemosIL Factor XI Deficient Plasma and HemosIL SynthASil APTT, Werfen) and FX-deficient plasma (HemosIL Factor X Deficient Plasma and HemosIL RecombiPlasTin, Werfen). The plasma levels of prothrombin fragment 1 + 2 were measured using an enzyme-linked immunosorbent assay (Enzygnost F1 + 2 Monoclonal, Siemens).

[4] = system: PT and aPTT; test: PT and aPTT of human blood with inhibitor added in vitro; format: biochemical; conditions: ONO-1600586 3 μmol/L, rivaroxaban 1 μmol/L
[5] = 75 minutes after oral administration, ONO-1600586 5, 15, 50 mg/kg, rivaroxaban 1.5, 5, 15 mg/kg
[6] = 4.5 hours after oral administration, ONO-1600586 50 mg/mL, rivaroxaban 15 mg/mL (so in the source)

For O=C(NC[C@H]1CN(c2ccc(N3CCOCC3=O)cc2)C(=O)O1)c1ccc(Cl)s1 [rivaroxaban], the “venous thrombus weight compared with control” value ([1]; 1 mg/kg oral (so in the source)) was “tended to reduce”, the “venous thrombus weight compared with control” value ([1]; 5 mg/kg oral) was “tended to reduce” and the “venous thrombus weight compared with control” value ([1]; 15 mg/kg oral, 15 mg/kg) was “significantly reduced; also recorded: similarly reduced”. The “immunopositive area of fibrin in venous thrombus” value ([1]; compared with control and ONO-1600586 groups) was “tended to be smaller”, the “areas of erythrocytes or immunopositive areas of fibrin or GPIIb/IIIa in venous thrombus” value ([1]; histology of jugular vein thrombus, comparison among groups) was “did not differ” and the “PT after oral administration” value [2, 5] was “dose-dependently prolonged”. The “aPTT after oral administration” value [2, 5] was “dose-dependently prolonged”, the “PT after oral administration” value [2, 6] was “prolonged” and the “aPTT after oral administration” value [2, 6] was “prolonged”. The “fibrin formation in the flow chamber” value ([3]; ONO-1600586 3 μM) was “markedly decreased”, the leukocyte adhesion ([3]; ONO-1600586 3 μmol/L) was “did not affect” and the “plasma levels of prothrombin fragment 1 + 2 after perfusion” value ([3]; ONO-1600586 3 μmol/L) was “reduced”. The platelet covering area ([3]; ONO-1600586 3 μmol/L) was “did not affect”, the “FXa activity in the plasma after perfusion” value [3] was “reduced” and the “PT compared with control” value [4] was 1.9 fold. The “aPTT compared with control” value [4] was 1.8 fold, the PT ([4]; n = 8) was 19 ± 3 s and the aPTT ([4]; n = 8) was 62 ± 5 s.
